Test results reported in patent publication US20210059590A1, “IDENTIFICATION OF AND TREATMENT FOR PERSONS AT HIGH RISK FOR DEVELOPING MAJOR DEPRESSIVE DISORDER” (The Trustees of Columbia University in the City of New York, priority 2018, published 2021).
Read-outs that look alike come from different tables or passages of the source.

Test: Plasma free fraction (fP) of the PET tracer
Type: in vitro ADME, human
Settings: for fraction unbound: human, plasma
Description: Arterial plasma radioactivity, metabolites, and plasma free fraction (fP) were collected and assayed as previously described (Parsey et al., 2006; Parsey et al., 2000). Unmetabolized parent fraction levels were fit with a Hill function (Wu et al., 2007). The input function was corrected for unmetabolized tracer by multiplying the total plasma counts with the interpolated parent fraction. The metabolite-corrected arterial input function was fit as the combination of a straight line and the sum of three decreasing exponentials, describing the function before and after the peak, respectively.

For `COc1ccccc1N1CCN(CCN(C(=O)C2CCCCC2)c2ccccn2)CC1` [[^11C]WAY-100635, N-[2-[4-(2-methoxyphenyl)-1-piperazinyl]ethyl]-N-2-pyridinylcyclohexanecarboxamide], the “Percent Free Fraction” value (Depressed NRM MDD subjects, N=30, mean ± SD) was 6.15 ± 1.72%, the “Percent Free Fraction” value (Healthy Volunteers (HV), N=51, mean ± SD) was 8.10 ± 2.39% and the fraction unbound (Depressed NRM MDD subjects, N=30, mean ± SD, read-out: Percent Free Fraction) was about 0.062. The fraction unbound (Healthy Volunteers (HV), N=51, mean ± SD, read-out: Percent Free Fraction) was about 0.08, the fraction unbound (High Risk (HR) subjects, N=9, mean ± SD, read-out: Percent Free Fraction) was 0.065 and the fraction unbound (Medication Exposed MDD patients, n=66, off antidepressants at least two weeks, read-out: Plasma free fraction (fp)) was 0.07 ± 0.02. For the same molecule, the fraction unbound (Medication Naïve MDD patients, n=32, read-out: Plasma free fraction (fp)) was 0.06 ± 0.02.
